Source: article PMC10974533, “Cationicity Enhancement on the Hydrophilic Face of Ctriporin Significantly Reduces Its Hemolytic Activity and Improves the Antimicrobial Activity against Antibiotic-Resistant ESKAPE Pathogens” (Toxins, 2024)
Where a SMILES comes first, the peptide text is derived from it.

Columns and labels:
Format in all cases: cell-based
E. coli ATCC35218 = assay: MIC, broth dilution, standard strain; conditions: broth dilution (CLSI), MHB, 37 °C, 16–20 h
Protocol: (§1) The standard strains, including S. aureus ATCC29213 and ATCC25923, E. faecalis ATCC29212, E. coli ATCC25922 and ATCC35218, A. baumannii ATCC19606, K. pneumoniae ATCC700603, and P. aeruginosa ATCC27853, were purchased from the China Center of Type Culture Collection (CCTCC). The clinical strains of the ESKAPE pathogens were isolated from the affiliated hospitals of Hubei University of Medicine. All of them were stored at −80 °C before use. The drug sensitivities of the clinical strains were determined by the Kirby–Bauer test.
(§2) The MICs were determined using the broth dilution method according to the guidelines of the Clinical and Laboratory Standards Institute (CLSI), as described in the previous studies. Briefly, the bacterial cells were incubated in Mueller–Hinton broth (MHB, Oxoid, Basingstoke, UK) at 37 °C and 150 rpm to the mid-growth phase and diluted to achieve a final concentration of 5 × 10^5 colony-forming units per milliliter (CFU/mL). Then, the cells were mixed with each peptide in different concentrations (1, 2, 4, 8, 16, 32, and 64 μg/mL). […] All experiments were repeated at least three times.

K. pneumoniae ATCC700603 = assay: MIC, broth dilution, standard strain; conditions: broth dilution (CLSI), MHB, 37 °C, 16–20 h
Protocol: as §1, §2

S. aureus ATCC29213 = assay: MIC, broth dilution, standard strain; conditions: broth dilution (CLSI), MHB, 37 °C, 16–20 h
Protocol: as §1, §2

E. faecium ATCC29212 = assay: MIC, broth dilution, standard strain; conditions: broth dilution (CLSI), MHB, 37 °C, 16–20 h
Protocol: as §1, §2

P. aeruginosa ATCC27853 = assay: MIC, broth dilution, standard strain; conditions: broth dilution (CLSI), MHB, 37 °C, 16–20 h
Protocol: as §1, §2

E. coli ATCC25922 = assay: MIC, broth dilution, standard strain; conditions: broth dilution (CLSI), MHB, 37 °C, 16–20 h
Protocol: as §1, §2

S. aureus ATCC25923 = assay: MIC, broth dilution, standard strain; conditions: broth dilution (CLSI), MHB, 37 °C, 16–20 h
Protocol: as §1, §2

A. baumannii ATCC19606 = assay: MIC, broth dilution, standard strain; conditions: broth dilution (CLSI), MHB, 37 °C, 16–20 h
Protocol: as §1, §2

[1] = tested on: human red blood cells (hRBC); assay: Hemolytic activity determination; conditions: 2% (v/v) hRBC, 37 °C, 1 h; for Hemolysis% at 256 μg/mL: 256 μg/mL peptide, OD540, 1% Triton X-100 = 100%, average ± standard error of three independent experiments
Protocol: Figure 2 Hemolytic activities of Ctriporin and its analogs against human red blood cells (hRBC). Hemolytic activities of Ctriporin (solid circle), CM1 (open circle), CM2 (open square), CM3 (upward triangle), CM4 (downward triangle), CM5 (half solid circle), CM6 (half solid square), and CM7 (half solid triangle), were measured against 2% (v/v) human red blood cells. The peptide concentrations are 0, 2, 4, 8, 16, 32, 64, 128, 256, and 512 μg/mL. The cells treated with 1% Triton X-100 were treated as 100% hemolysis. All experiments were repeated three times, and the data shown are the average ± standard error.
The hemolytic activities of the peptides were determined against human red blood cells (hRBCs). As described, sodium citrate-anticoagulated hRBCs were washed three times with 0.9% sodium chloride and diluted to a final concentration of 4% (v/v). Then, an equal volume of hRBC solutions was mixed with an equal volume of each peptide in a series of concentrations (0, 2, 4, 8, 16, 32, 64, 128, 256, and 512 μg/mL). After co-incubation at 37 °C for 1 h, the degree of hemolysis of the peptides was determined by detecting the release of hemoglobin from the damaged hRBCs by measuring the optical density at 540 nm (OD540). hRBCs in 0.9% sodium chloride and 1% Triton X-100 were considered 0% and 100% hemolysis, respectively. The results shown are the average ± standard error of data derived from three independent experiments. The percent hemolysis was calculated according to the following equation [53, 54]:Hemolysis (%) = 100 × (Asample − Ablank)/(Apositive − Ablank)

standard ESKAPE strains = conditions: broth dilution (CLSI), MHB, 37 °C, 16–20 h; range over all standard strains
Protocol: The ESKAPE pathogens represent the main threat to public health concerning antimicrobial resistance. Therefore, we first evaluated the antimicrobial activities of Ctriporin and its analogs against the standard ESKAPE strains. The minimum inhibitory concentration (MIC) was chosen as the index for the evaluation of each peptide’s activity. […] Note that the MICs of CM4 and CM7 are 4–32 and 8–32 μg/mL, respectively, indicating the existence of significant bacterial species deviations for the antimicrobial activity of these peptides. In addition, the replacement of specific residues, especially Pro^7, may harm the antimicrobial activities of the peptide.
as §1, §2

[2] = 5 × 10^5 CFU/mL, OD630, repeated at least three times

| SMILES | MICs (E. coli ATCC35218; [2]) [µg/mL] | MICs (E. coli ATCC35218; value in parentheses) [µM] | MICs (K. pneumoniae ATCC700603; [2]) [µg/mL] | MICs (K. pneumoniae ATCC700603; value in parentheses) [µM] | MICs (S. aureus ATCC29213; [2]) [µg/mL] | MICs (S. aureus ATCC29213; value in parentheses) [µM] | MICs (E. faecium ATCC29212; [2]) [µg/mL] | MICs (E. faecium ATCC29212; value in parentheses) [µM] | MICs (P. aeruginosa ATCC27853; [2]) [µg/mL] | MICs (P. aeruginosa ATCC27853; value in parentheses) [µM] | MICs (E. coli ATCC25922; [2]) [µg/mL] | MICs (S. aureus ATCC25923; [2]) [µg/mL] | MICs (S. aureus ATCC25923; value in parentheses) [µM] | MICs (A. baumannii ATCC19606; [2]) [µg/mL] | MICs (A. baumannii ATCC19606; value in parentheses) [µM] | Hemolysis% at 256 μg/mL [1] [%] | MICs (E. coli ATCC25922; value in parentheses) [µM] | MICs against the ESKAPE pathogens (range over the standard strains of Table 2) (standard ESKAPE strains) [µg/mL] | curve of hemolysis% vs. peptide concentration (Figure 2) ([1]; 0–512 μg/mL peptide, compared in words) |
| --- | --- | --- | --- | --- | --- | --- | --- | --- | --- | --- | --- | --- | --- | --- | --- | --- | --- | --- | --- |
| CC[C@H](C)[C@H](NC(=O)[C@H](C)NC(=O)CNC(=O)[C@@H]1CCCN1C(=O)[C@@H](NC(=O)[C@H](CC(C)C)NC(=O)[C@H](CCCCN)NC(=O)[C@H](Cc1c[nH]c2ccccc12)NC(=O)[C@H](CC(C)C)NC(=O)[C@@H](N)Cc1ccccc1)[C@@H](C)CC)C(=O)N[C@@H](CO)C(=O)N[C@@H](C)C(=O)N[C@H](C(=O)N[C@H](C(=O)N[C@@H](CO)C(=O)N[C@@H](CC(C)C)C(=O)N[C@H](C(=O)N[C@@H](CCCCN)C(=O)N[C@@H](CCCCN)C(N)=O)[C@@H](C)CC)[C@@H](C)O)C(C)C [CM1] (H-FLWKLIPGAISAVTSLIKK-NH2; N-terminus assumed) | 32 | 15.4 | 64 | 30.7 | 8 | 3.8 | 16 | 7.7 | > 64 | > 30.7 | 8 | 16 | 7.7 | 8 | 3.8 | 75.6 ± 10.1 | – | – | – |
| CC[C@H](C)[C@H](NC(=O)[C@H](C)NC(=O)[C@H](CCCCN)NC(=O)[C@@H]1CCCN1C(=O)[C@@H](NC(=O)[C@H](CC(C)C)NC(=O)[C@H](CCCCN)NC(=O)[C@H](Cc1c[nH]c2ccccc12)NC(=O)[C@H](CC(C)C)NC(=O)[C@@H](N)Cc1ccccc1)[C@@H](C)CC)C(=O)N[C@@H](CO)C(=O)N[C@@H](C)C(=O)N[C@H](C(=O)N[C@H](C(=O)N[C@@H](CO)C(=O)N[C@@H](CC(C)C)C(=O)N[C@H](C(=O)N[C@@H](CCCCN)C(=O)N[C@@H](CCCCN)C(N)=O)[C@@H](C)CC)[C@@H](C)O)C(C)C [CM2] (H-FLWKLIPKAISAVTSLIKK-NH2; N-terminus assumed) | 8 | 3.7 | 16 | 7.4 | 4 | 1.9 | 4 | 1.9 | 16 | 7.4 | 4 | 8 | 3.7 | 4 | 1.9 | 74.3 ± 9.2 | 1.9 | – | – |
| CC[C@H](C)[C@H](NC(=O)[C@H](C)NC(=O)[C@H](CCCCN)NC(=O)[C@@H]1CCCN1C(=O)[C@@H](NC(=O)[C@H](CC(C)C)NC(=O)[C@H](CCCCN)NC(=O)[C@H](Cc1c[nH]c2ccccc12)NC(=O)[C@H](CC(C)C)NC(=O)[C@@H](N)Cc1ccccc1)[C@@H](C)CC)C(=O)N[C@@H](CCCCN)C(=O)N[C@@H](C)C(=O)N[C@H](C(=O)N[C@H](C(=O)N[C@@H](CO)C(=O)N[C@@H](CC(C)C)C(=O)N[C@H](C(=O)N[C@@H](CCCCN)C(=O)N[C@@H](CCCCN)C(N)=O)[C@@H](C)CC)[C@@H](C)O)C(C)C [CM3] (H-FLWKLIPKAIKAVTSLIKK-NH2; N-terminus assumed) | 4 | 1.8 | 8 | 3.6 | 4 | 1.8 | 4 | 1.8 | 8 | 3.6 | 4 | 4 | 1.8 | 4 | 1.8 | 89.1 ± 12.1 | 1.8 | 4 to 8 | – |
| CC[C@H](C)[C@H](NC(=O)[C@H](C)NC(=O)[C@H](CCCCN)NC(=O)[C@@H]1CCCN1C(=O)[C@@H](NC(=O)[C@H](CC(C)C)NC(=O)[C@H](CCCCN)NC(=O)[C@H](Cc1c[nH]c2ccccc12)NC(=O)[C@H](CC(C)C)NC(=O)[C@@H](N)Cc1ccccc1)[C@@H](C)CC)C(=O)N[C@@H](CCCCN)C(=O)N[C@@H](CCCCN)C(=O)N[C@H](C(=O)N[C@H](C(=O)N[C@@H](CO)C(=O)N[C@@H](CC(C)C)C(=O)N[C@H](C(=O)N[C@@H](CCCCN)C(=O)N[C@@H](CCCCN)C(N)=O)[C@@H](C)CC)[C@@H](C)O)C(C)C [CM4] (H-FLWKLIPKAIKKVTSLIKK-NH2; N-terminus assumed) | 16 | 7.1 | 32 | 14.2 | 4 | 1.8 | 16 | 7.1 | 16 | 7.1 | 8 | 8 | 3.6 | 4 | 1.8 | 14.0 ± 4.7 | 3.6 | 4 to 32 | decreased dramatically compared with Ctriporin |
